Laboratory results published in patent US20250092360A1, “METHODS AND COMPOSITIONS FOR GENERATING SOMATOSTATIN+ INTERNEURONS FROM HUMAN FOREBRAIN NEURAL PROGENITOR CELLS” (Trailhead Biosystems Inc., priority 2023, published 2025).
Several values for one entry are separate records, joined by “and”; a condition that tells them apart may be missing. Equal entries are not always repeated. Entries after “also recorded” stand apart in the source; their conditions may differ.

How the values were obtained:
[1] = test system: forebrain-committed neural progenitor cells; experiment: HD-DoE stage 5, 8-factor experiment (GDNF, BDNF, NT-3 ...): Somatostatin expression; type: cell-based, human; details: for impact on expression of Somatostatin: FIG. 24 dynamic profile, in words; for factor contribution, expression of Somatostatin: positive, 8-factor experiment of FIG. 23
Experimental: To investigate the effects of other factors on differentiation of forebrain-committed neural progenitor cells to Somatostatin interneuron cells, an additional HD-DoE experiment was performed for 3 days on cells that were treated with stage 1 to stage 4 medium for a total of 12 days prior to the new experiment. This experiment, the results of which are shown in FIG. 23, included eight effectors, GDNF, BDNF, NT-3, ß-NGF, Linoleic acid, 5-Cholesten-3β, LIF and TGF-β3. In this model, we focused on maximum expression of Somatostatin gene expressed in Somatostatin (+) interneurons (Urban-Ciecko and Barth (2016) Nature Reviews Neurosci. 17:401-409). When the model was optimized for maximum expression of Somatostatin, BDNF, NT-3, beta-NGF and Linoleic acid had the highest factor contributions, 25.7, 2, 19.9, 23.5, respectively.
Therefore, the latter were excluded in the recipe.

[2] = test system: stage 2 neural stem cells; experiment: Factor criticality analysis, stage 3 recipe; type: cell-based, human; details: other five stage 3 factors present; for expression level of DLX1 when the factor is removed: 220 with all six factors; for expression level of LHX6 when the factor is removed: 240 with all six factors; for expression level of ASCL1 when the factor is removed: 1650 with all six factors
Experimental: To assess the impact of the elimination of each validated factor, dynamic profile analysis was used and compared the expression level of genes of interest in absence of each finalized factor while others are present.
In the stage 3 recipe, each of the six finalized factors were removed while the other five factors remained present and the expression levels of ASCL1, DLX1 and LHX6 were assessed compared to the presence of all six factors. […] As expected, in the absence of IGF-1, the value of DLX1 increases to 410, however, ASCL1 and LHX6 decreased to 1390 and 220, respectively.

[3] = test system: stage 2 neural stem cells; experiment: HD-DoE stage 3 experiment: ASCL1, LHX6, DLX1 expression; type: cell-based, human; details: for factor contribution, expression of ASCL1: positive, model optimized for maximum ASCL1 at 1700
Experimental: To further guide the cells to medial ganglionic eminence progenitor fate, an additional HD-DoE experiment was performed for 3 days on cells that were treated with stage 1 and stage 2 media for total of 6 days prior to start of the experiment. This experiment included 13 effectors, LDN193189, A8301, GNF5837, AZD3147, GSI-XX, Takinib, PD0325901, PD173074, BLU9931, IGF-1, MHY1485, Purmorphamine and Prostratin. In this model, we focused on maximum expression of genes expressed in neuronal progenitor cells in medial ganglionic eminence (MGE) region including ASCL1, LHX6 and DLX1 (Silberberg et al. (2016) Neuron 92:59-74). When the model was optimized for maximum expression of ASCL1 at 1700, A8301, GSI-XX, Purmorphamine and Takinib, which is an inhibitor of TAK1 pathway, had the highest factor contributions, 18.1, 14.1, 12.7 and 10.1 respectively. […] MHY 1485 also had positive contribution however the factor was below 2 (FIG. 9).
Therefore, six effectors including A8301, GSI-XX, Takinib, GNF5837, IGF-1 and Purmorphamine were finalized as ingredients of stage 3 differentiation media. A representative recipe for Stage 3 differentiation is summarized below in Table 3.

[4] = test system: human pluripotent stem cells; experiment: Factor criticality analysis, stage 1 recipe (dynamic profile analysis); type: cell-based; details: 3500 with all factors; FIG. 12
Source text: To assess the impact of the elimination of each validated factor, dynamic profile analysis was used and compared the expression level of genes of interest in absence of each finalized factor while others are present. […] When Purmorphamine was removed, levels of FEZF2 and SIX3 were decreased to 1000 and below 3000, while levels of OTX2 increased to 6500.

[5] = test system: human pluripotent stem cells; experiment: HD-DoE stage 1, additional experiment: FEZF2 expression; type: cell-based; details: dynamic profile, in words
Experimental: To identify the recipe for stage 1 of differentiation, 96 different combinations of effectors generated using Design-of-Experiments compression through D-optimality were robotically prepared. The effector combinations were prepared in a basal media and were subsequently added to the cells, which were then allowed to differentiate. Three days later RNA extraction was performed, and gene expression was obtained using quantitative PCR analysis. The data were normalized and modeled using partial least squares regression analysis to the effector design, resulting in the generation of gene-specific models, which after model tuning for maximal Q2 predictive power, provided explanation of the effectors ability to control the expression of individual genes, combinatorically, and individually. Solutions within the tested space could then be explored to address desirability. To further enhance the conditions for forebrain differentiation from pluripotency, an additional HD-DoE experiment was performed. Additional gene regulatory models were obtained that were used for preparation of the differentiation protocol. The factors in this experiment included LDN193189, PD173074, BLU9931, Purmorphamine, SC79, MK2206, ZM336372, PD0325901, CHIR99021, XAV939, UCLA-GP130, Tofacitinib and GO6983. […] Dynamic profile analysis was also used to assess the interaction between the effectors.

[6] = test system: medial ganglionic eminence (MGE)-derived neural progenitors; experiment: HD-DoE stage 4, 12-factor experiment: SOX6 expression; type: cell-based, human; details: for impact on expression of SOX6: dynamic profile, in words; for factor contribution, expression of SOX6: significant negative effect, model optimized for maximal SOX6
Source text: These effectors are small chemical compounds or proteins. They are commonly used during the differentiation of stem cells to specific cell linage. The choice of the effectors was based on the current literature on forebrain neural induction and differentiation of neural progenitor cells to mature neurons.
To evaluate the effectors on SST differentiation, experiments with 8 or 12 factors were designed to assess the responses of cells to 48 or more combinations of effectors in a range of concentrations. To analyze the models, we focused on expression of genes involved in development and patterning of the forebrain interneurons maturation including LHX6 (Liodis et al. (2007) J. Neurosci. 27:3078-3089; Yuan et al. (2018) Elife 7: e37382), SOX6 (Azim et al. (2009) Nature Neurosci. 12:1238-1247; Batista-Brito et al. (2009) Neuron 63:466-481), DLX5 (de Lombares et al. (2019) Aging (Albany NY) 11:6638; Wang et al. (2010) J. Neurosci. 30:5334-5345) and ASCL1 (Barretto et al. (2020) J. Neurosci. Meth. 334:108548; Shi et al. (2016) J. Biol. Chem. 291:13560-13570). At later stages we focused on interneuron maturation genes including somatostatin and absence of Parvalbumin (Horn and Nicoll (2018) Proc. Natl. Acad. Sci. 115:589-594). The impacts of each effector on gene expression level are defined by a parameter called factor contribution that is calculated for each effector during the modeling.
To identify the recipe for differentiation at stage 4, at least 48 different combinations of effectors were robotically prepared by the Design-of-Experiments compression through D-optimality. The effector combinations were prepared in a basal media and were subsequently added to the cells, which were then allowed to differentiate. Three days later, RNA extraction was performed, and gene expression levels were examined using quantitative PCR analysis. The data was normalized and modeled using partial least squares regression analysis to the effector design, resulting in the generation of gene-specific models, which after model tuning for maximal predictive power, provided explanation of the effectors ability to control the expression of individual genes, combinatorically, and individually. Solutions within the tested space could then be explored to address desirability.
IGF-1 activates the IGF-1 pathway, promotes neuron axonal growth, and establishes the synapse of interneurons. GDNF is the […] and can activate the GDNF pathway. MK2206 is an AKT inhibitor and can inhibit cell proliferation and promote neuronal maturation. PD173074 and BLU-554 are FGFR inhibitors. The FGF pathway is required for the maintenance of neural progenitor cells. Inhibition of the FGFR pathway promotes neural maturation. GSI-XX is a notch pathway inhibitor. Notch pathway inhibits neural progenitor cell differentiation. Inhibition of the Notch pathway promotes neural differentiation.
To find the set of factors that have the potential to optimize SOX6 in this experiment, a new assessment was done through dynamic profile analysis with focus on maximal expression of SOX6.

Molecule: 5-Cholesten-3β
- impact on expression of Somatostatin [1]: negative impact

Molecule: Cc1cccc(-c2nn(C(=S)Nc3ccccc3)cc2-c2ccnc3ccccc23)n1 [A8301]
- expression level of DLX1 when the factor is removed [2]: did not change significantly
- expression level of LHX6 when the factor is removed [2]: did not change significantly
- expression level of ASCL1 when the factor is removed [2]: 1000
- impact on expression of ASCL1 ([3]; dynamic profile, in words): positive trends; also recorded: Positive impact
- impact on expression of DLX1 ([3]; dynamic profile, in words): did not have a significant negative impact
- impact on expression of LHX6 ([3]; dynamic profile, in words): positive trends; also recorded: Positive impact
- factor contribution, expression of ASCL1 [3]: 18.1 and 18

Molecule: Cc1ccc(NC(=O)Nc2cc(C(F)(F)F)ccc2F)cc1Nc1ccc2c(c1)NC(=O)/C2=C\c1ccc[nH]1 [GNF5837]
- expression level of DLX1 when the factor is removed [2]: did not have a significant impact
- expression level of LHX6 when the factor is removed [2]: 160
- expression level of ASCL1 when the factor is removed [2]: 1300
- factor contribution, expression of ASCL1 [3]: 9.4

Molecule: COc1ccc2c(c1)c(C1=C(c3c[nH]c4ccccc34)C(=O)NC1=O)cn2CCCN(C)C [GO6983]
- expression level of FEZF2 when the factor is removed [4]: 3200
- impact on expression of FEZF2 [5]: positive impact

Molecule: CCCCC/C=C\C/C=C\CCCCCCCC(=O)O [Linoleic acid]
- impact on expression of Somatostatin [1]: positive effect; also recorded: positive impact
- factor contribution, expression of Somatostatin [1]: 23.5

Molecule: O=[N+]([O-])c1ccc(Nc2nc(N3CCOCC3)nc(N3CCOCC3)n2)cc1 [MHY 1485]
- factor contribution, expression of ASCL1 [3]: below 2
- impact on expression of SOX6 [6]: negative effect
- factor contribution, expression of SOX6 [6]: 9.5

Molecule: NC(=O)c1ccc(-c2nc(-c3ccc4c(c3)OCO4)c(-c3ccccn3)[nH]2)cc1 [SB431542]
- impact on expression of SOX6 [6]: negative effect
- factor contribution, expression of SOX6 [6]: 6.2

Molecule: CCCn1/c(=N/C(=O)c2cccc(C(N)=O)c2)[nH]c2ccccc21 [Takinib]
- expression level of DLX1 when the factor is removed [2]: 180
- expression level of LHX6 when the factor is removed [2]: 170
- factor contribution, expression of ASCL1 [3]: 10.1

Molecule: CCCC(CCC)C(=O)O [Valproic acid]
- impact on expression of SOX6 [6]: negative effect
- factor contribution, expression of SOX6 [6]: 4.7

Molecule: LIF: effector tested in the stage 5 HD-DoE experiment
- impact on expression of Somatostatin [1]: negative impact

Molecule: Substance P: member of the tachykinin neuropeptide family
- impact on expression of SOX6 [6]: negative effect
- factor contribution, expression of SOX6 [6]: 5.1

Molecule: beta-NGF: effector tested in the stage 5 HD-DoE experiment
- impact on expression of Somatostatin [1]: positive impact
- impact on expression of Somatostatin ([1]; listed as β-NGF): positive effect
- factor contribution, expression of Somatostatin [1]: 19.9

B1: NT-3: effector tested in the stage 5 HD-DoE experiment (protein, UniProt P20783 139-257, looked up)
Neurotrophin-3: YAEHKSHRGEYSVCDSESLWVTDKSSAIDIRGHQVTVLGEIKTGNSPVKQYFYETRCKEARPVKNGCRGIDDKHWNSQCKTSQTYVRALTSENNKLVGWRWIRIDTSCVCALSRKIGRT
- impact on expression of Somatostatin [1]: positive effect; also recorded: positive impact
- factor contribution, expression of Somatostatin [1]: 2

B2: TGF-β3: effector tested in the stage 5 HD-DoE experiment (protein, UniProt P10600 301-412, looked up)
Transforming growth factor …: ALDTNYCFRNLEENCCVRPLYIDFRQDLGWKWVHEPKGYYANFCSGPCPYLRSADTTHSTVLGLYNTLNPEASASPCCVPQDLEPLTILYYVGRTPKVEQLSNMVVKSCKCS
modifications: Transforming growth factor beta-3
- impact on expression of Somatostatin [1]: negative impact
